Reference: patent US8686187B2, “Ethoxy diphenyl ethane derivatives, preparation processes and uses thereof” (Shanghai Ecust Biomedicine Co., Ltd., priority 2008, dated 2014)
Where two headings read alike, the source gives them in different places.

Tests used:
[1] = system: S180 sarcoma transplanted tumor; assay: Tumor-inhibiting rate experiment, intravenous injection, S180 sarcoma transplanted tumor in mice; type: in vivo; settings: for Tumor-inhibiting rate (%): d0-d12 seven times, tumor weight; for tumor volume observation in drug administered group: around the eighth day after drug administration
Method: After 1 week for adaptation, mice are subcutaneously inoculated with S180 sarcoma tissues and randomly grouped after the tumor grows as much as the area of 100 to 300 mm^3; every compound is used for 6 mice in drug administered group and for 12 mice in control group, the administration doses are as below: 25, 50 mg/kg of ECB1P, ECB1GN hydrochloride, ECB1SN hydrochloride and positive controls ECA4P, ECA4GN hydrochloride, as well as 50, 100 mg/kg of positive controls CB1GA hydrochloride, CB1P and CA4P, the administration is given intravenously on Day d0, d2, d4, d6, d8, d10 and d12, seven times in total, measurement of tumor volume, mice weighing and data recording are performed three times every week, the mice are executed on the fourtheenth day after inoculation, tumor tissues are weighed to calculate the tumor-inhibiting rate, tumor weight inhibiting rate %=(1−average tumor weight in treatment group/average tumor weight in control group)×100%.

Kunming mice = assay: Acute toxicity test of single mice intraperitoneal injection; type: in vivo; settings: for LD50: 14 days observation
Method: Kunming mice (half-and-half male and female, 17 to 22 grams heavy) are randomly grouped according to weights thereof, and during the test, the mice are divided, based on the proportion of 0.9, into 10 dose groups with each including 10 mice and having the maximal dose of 1500 mg/kg, the tested drugs having the respective doses of 1500, 1350, 1215, 1093, 984, 885, 797, 717, 645 and 581 mg/kg are administered in a manner of single intraperitoneal injection, mice observation and death rate recording are respectively performed once 0.25 h, 0.5 h, 1 h, 2 h, 4 h and 24 h after the drug administration, afterwards, everyday mice observation and death rate recording are performed for 14 days, the mice that are not dead are executed on the fifteenth day and are subjected to pathological anatomy.

[2] = system: Human colorectal cancer cell HT-29; assay: Antitumor activity evaluation for in vitro cultured tumor cells (SRB); type: cell-based; settings: for times stronger than positive control CB1: colorectal cancer HT-29
[3] = system: Non-small cell lung cancer cell NCl-H292; assay: as above; type: cell-based
Gastric cancer SGC-7901 = assay: as above; type: cell-based
Liver cancer Bel-7402 = assay: as above; type: cell-based
[4] = system: Human umbilical vein endothelial cell (HUVEC); assay: Proliferation inhibition of human umbilical vein endothelial cells (SRB); type: cell-based
[5] = NCl-H292, 48 hours, SRB, read-out: IC50
[6] = HT-29, 48 hours, SRB, read-out: IC50
[7] = SGC-7901, 48 hours, SRB, read-out: IC50
[8] = Bel-7402, 48 hours, SRB, read-out: IC50

Molecule: 3,4,5-trimethoxy-3′-glycylamino-4′-ethoxydiphenylethane [CB1GN hydrochloride]
- Tumor-inhibiting rate (%) ([1]; 50 mg/kg intravenously): 26%

Molecule: 3,4,5-trimethoxy-3′-glycylamino-4′-ethoxydiphenylethane [ECB1GN hydrochloride]
- Tumor-inhibiting rate (%) ([1]; 25 mg/kg intravenously): 40%
- tumor volume observation in drug administered group [1]: tendency of tumor shrinkage
- toxicity compared with positive controls (Kunming mice): toxicity lower than ethoxydiphenylethylene positive control compounds ECA4P and ECA4GN hydrochloride
- LD50 (Kunming mice): 1012 mg/kg

Molecule: 3,4,5-trimethoxy-4′-ethoxydiphenylethane-3′-o-disodium phosphate salt [ECB1P]
- Tumor-inhibiting rate (%) ([1]; 25 mg/kg intravenously): 42%
- tumor volume observation in drug administered group [1]: tendency of tumor shrinkage
- toxicity compared with positive controls (Kunming mice): toxicity lower than ethoxydiphenylethylene positive control compounds ECA4P and ECA4GN hydrochloride
- LD50 (Kunming mice): 1056 mg/kg

Molecule: 3,4,5-trimethoxy-4′-methoxydiphenylethane3′-o-disodium phosphate salt [CB1P]
- Tumor-inhibiting rate (%) ([1]; 50 mg/kg intravenously): 28%
- LD50 (Kunming mice): 1228 mg/kg

Molecule: COc1ccc(/C=C\c2cc(OC)c(OC)c(OC)c2)cc1O [CA4, (Z)-3,4,5-trimethoxy-3′-hydroxy-4′-methoxydiphenylethylene]
- IC50 ([2]; Homo sapiens, HT-29, 48 hours, SRB, read-out: IC50): 21 nM
- IC50 [3, 5]: 2400 nM
- IC50 (Gastric cancer SGC-7901; Homo sapiens, SGC-7901, 48 hours, SRB, read-out: IC50): 3.6 nM
- IC50 (Liver cancer Bel-7402; Homo sapiens, Bel-7402, 48 hours, SRB, read-out: IC50): 830 nM
- IC50 ([4]; 48 hours, SRB, read-out: IC50): 4.8 nM
- IC50 ([4]; Homo sapiens, 48 h, SRB, read-out: IC50): 4.8 to 7.7 nM

Molecule: COc1ccc(CCc2cc(OC)c(OC)c(OC)c2)cc1O [CB1, 3,4,5-trimethoxy-3′-hydroxy-4′-methoxydiphenylethane]
- IC50 [2, 6]: 35 nM
- IC50 [3, 5]: 2800 nM
- IC50 (Gastric cancer SGC-7901; [7]): 4.2 nM
- IC50 (Liver cancer Bel-7402; [8]): 1700 nM
- IC50 ([4]; 48 hours, SRB, read-out: IC50): 5.6 nM

Molecule: COc1ccc(CCc2cc(OC)c(OC)c(OC)c2)cc1N [CB1N, 3,4,5-trimethoxy-3′-amino-4′-methoxydiphenylethane]
- IC50 [2, 6]: 39 nM
- IC50 [3, 5]: 3000 nM
- IC50 (Gastric cancer SGC-7901; [7]): 4.8 nM
- IC50 (Liver cancer Bel-7402; [8]): 2500 nM
- IC50 ([4]; 48 hours, SRB, read-out: IC50): 7.7 nM

Molecule: CCOc1ccc(/C=C\c2cc(OC)c(OC)c(OC)c2)cc1O [ECA4, (Z)-3,4,5-trimethoxy-3′-hydroxy-4′-ethoxydiphenylethylene]
- IC50 ([2]; Homo sapiens, HT-29, 48 h): 0.28 nM
- IC50 ([3]; 48 h): 160 nM
- IC50 (Gastric cancer SGC-7901; Homo sapiens, SGC-7901, 48 h): 0.25 nM
- IC50 (Liver cancer Bel-7402; Homo sapiens, Bel-7402, 48 h): 63 nM
- IC50 ([4]; Homo sapiens, 48 h): 0.8 nM

Molecule: CCOc1ccc(/C=C\c2cc(OC)c(OC)c(OC)c2)cc1NC(=O)CN.Cl [ECA4GN hydrochloride, (Z)-3,4,5-trimethoxy-3′-glycylamino-4′-ethoxydiphenylethane]
- Tumor-inhibiting rate (%) ([1]; 25 mg/kg intravenously): 39%
- Tumor-inhibiting rate (%) ([1]; 50 mg/kg intravenously, listed as ECA4GN hydrochlonde): 64%
- tumor volume observation in drug administered group [1]: tendency of tumor shrinkage
- LD50 (Kunming mice): 912 mg/kg

Molecule: CCOc1ccc(/C=C\c2cc(OC)c(OC)c(OC)c2)cc1N [ECA4N, (Z)-3,4,5-trimethoxy-3′-amino-4′-ethoxydiphenylethylene]
- IC50 ([2]; Homo sapiens, HT-29, 48 h): 0.15 nM
- IC50 ([3]; 48 h): 100 nM
- IC50 (Gastric cancer SGC-7901; Homo sapiens, SGC-7901, 48 h): 0.19 nM
- IC50 (Liver cancer Bel-7402; Homo sapiens, Bel-7402, 48 h): 39 nM
- IC50 ([4]; Homo sapiens, 48 h): 0.76 nM

Molecule: CCOc1ccc(/C=C\c2cc(OC)c(OC)c(OC)c2)cc1OP(=O)([O-])[O-].[Na+].[Na+] [ECA4P, (Z)-3,4,5-trimethoxy-4′-ethoxydiphenylethylene-3′-o-disodium phosphate salt]
- Tumor-inhibiting rate (%) ([1]; 25 mg/kg intravenously): 43%
- tumor volume observation in drug administered group [1]: tendency of tumor shrinkage
- LD50 (Kunming mice): 906 mg/kg

Molecule: CCOc1ccc(CCc2cc(OC)c(OC)c(OC)c2)cc1O [ECB1, 3,4,5-trimethoxy-3′-hydroxy-4′-ethoxydiphenylethane]
- IC50 [2, 6]: 0.34 nM
- times stronger than positive control CB1 [2]: about 100 times
- IC50 [3, 5]: 170 nM
- IC50 (Gastric cancer SGC-7901; [7]): 0.28 nM
- IC50 (Liver cancer Bel-7402; [8]): 57 nM
- IC50 ([4]; 48 hours, SRB, read-out: IC50): 0.75 nM

Molecule: CCOc1ccc(CCc2cc(OC)c(OC)c(OC)c2)cc1N [ECB1N, 3,4,5-trimethoxy-3′-amino-4′-ethoxydiphenylethane]
- IC50 [2, 6]: 0.18 nM
- times stronger than positive control CB1 [2]: about 200 times
- IC50 [3, 5]: 120 nM
- IC50 (Gastric cancer SGC-7901; [7]): 0.15 nM
- IC50 (Liver cancer Bel-7402; [8]): 34 nM
- IC50 ([4]; 48 hours, SRB, read-out: IC50): 0.68 nM

Molecule: CCOc1ccc(CCc2cc(OC)c(OC)c(OC)c2)cc1NC(=O)C(N)CO.Cl (centres unmarked) [ECB1SN hydrochloride, 3,4,5-trimethoxy-3′-serylamino-4′-ethoxydiphenylethane]
- Tumor-inhibiting rate (%) ([1]; 25 mg/kg intravenously): 45%
- tumor volume observation in drug administered group [1]: tendency of tumor shrinkage
- toxicity compared with positive controls (Kunming mice): toxicity lower than ethoxydiphenylethylene positive control compounds ECA4P and ECA4GN hydrochloride
- LD50 (Kunming mice): 1185 mg/kg

Molecule: (Z)-3,4,5-trimethoxy-4′-methoxydiphenylethylene-3′-o-disodium phosphate salt [CA4P]
- Tumor-inhibiting rate (%) ([1]; 50 mg/kg intravenously): 28%
- LD50 (Kunming mice): 1276 mg/kg
